In publication PMC11111408, “Concurrent inhibition of oncogenic and wild-type RAS-GTP for cancer therapy” (Nature, 2024):
Values joined by “and” are separate entries in the source; they are usually repeats but may differ in a detail not shown here. Equal values may be shown once.

Columns and labels:
[1] = test system: NCI-H358 and MIA PaCa-2 cells expressing RTK constructs; test: pERK (MSD) in NCI-H358 and MIA PaCa-2 cells expressing exogenous RTK or RTK fusion constructs; type: cell-based, human
KRAS^G12R = KRAS^G12R (Homo sapiens, UniProt P01116+P62937, G12R); test: RAS binding affinity of compound-bound CYPA (Kd2), SPR; design: made in house; host or cells: BL21(DE3) Escherichia coli; details: steady state SPR, (95% CI)
KRAS^G12C = KRAS^G12C (Homo sapiens, UniProt P01116+P62937, G12C); test: as above; design: His6-TEV (N); made in house; host or cells: BL21(DE3) Escherichia coli; details: steady state SPR, (95% CI)

## CCn1c(-c2cc(N3CCN(C4CC4)CC3)cnc2[C@H](C)OC)c2c3cc(ccc31)-c1csc(n1)C[C@H](NC(=O)[C@H]1[C@@H]3COC[C@@H]31)C(=O)N1CCC[C@H](N1)C(=O)OCC(C)(C)C2 [RMC-7977]
[1]; CCDC6-RET, RMC-7977 0.046 nM
  pERK inhibition in MiaPaCa2 RTK fusion overexpression cells treated with RMC-7977: 114.81 and 112.21 and 120.39
[1]; CCDC6-RET, RMC-7977 0.412 nM
  pERK inhibition in MiaPaCa2 RTK fusion overexpression cells treated with RMC-7977: 62.51 and 66.85 and 62.20 and 56.39
[1]; CCDC6-RET, RMC-7977 1.235 nM
  pERK inhibition in MiaPaCa2 RTK fusion overexpression cells treated with RMC-7977: 40.55 and 38.10 and 39.55 and 34.25
[1]; CCDC6-RET, RMC-7977 3.704 nM
  pERK inhibition in MiaPaCa2 RTK fusion overexpression cells treated with RMC-7977: 15.40 and 16.48 and 16.06 and 15.78
[1]; CCDC6-RET, RMC-7977 11.111 nM
  pERK inhibition in MiaPaCa2 RTK fusion overexpression cells treated with RMC-7977: 5.99 and 6.04 and 6.20 and 6.24
[1]; CCDC6-RET, RMC-7977 33.333 nM
  pERK inhibition in MiaPaCa2 RTK fusion overexpression cells treated with RMC-7977: 4.07 and 4.10 and 4.14 and 4.22
[1]; CCDC6-RET, RMC-7977 100.000 nM
  pERK inhibition in MiaPaCa2 RTK fusion overexpression cells treated with RMC-7977: 3.63 and 3.37 and 3.48 and 3.54
[1]; EGFR WT, RMC-7977 0.0152 nM
  pERK in NCI-H358 RTK overexpression cells treated with RMC-7977: 104.75 and 140.08
  pERK inhibition in H358 RTK overexpression cells: 88.81 and 100.67
[1]; EGFR WT, RMC-7977 0.0457 nM
  pERK in NCI-H358 RTK overexpression cells treated with RMC-7977: 101.07 and 109.46
  pERK inhibition in H358 RTK overexpression cells: 80.53 and 78.65
[1]; EGFR WT, RMC-7977 0.41 nM
  pERK in NCI-H358 RTK overexpression cells treated with RMC-7977: 70.68 and 81.35
  pERK inhibition in H358 RTK overexpression cells: 58.96 and 57.93
[1]; EGFR WT, RMC-7977 3.70 nM
  pERK inhibition in H358 RTK overexpression cells: 13.20 and 12.44
[1]; EGFR WT, RMC-7977 11.11 nM
  pERK inhibition in H358 RTK overexpression cells: 5.97 and 5.02
[1]; EGFR WT, RMC-7977 33.33 nM
  pERK in NCI-H358 RTK overexpression cells treated with RMC-7977: 1.98 and 1.90
  pERK inhibition in H358 RTK overexpression cells: 3.17 and 3.29
[1]; EGFR WT, RMC-7977 100.00 nM
  pERK in NCI-H358 RTK overexpression cells treated with RMC-7977: 1.18 and 1.21
  pERK inhibition in H358 RTK overexpression cells: 3.04 and 2.54
[1]; EGFR WT, RMC-7977 300.00 nM
  pERK in NCI-H358 RTK overexpression cells treated with RMC-7977: 1.43 and 1.37
  pERK inhibition in H358 RTK overexpression cells: 2.79 and 3.22
[1]; EML4-ALK, RMC-7977 0.412 nM
  pERK inhibition in MiaPaCa2 RTK fusion overexpression cells treated with RMC-7977: 51.66 and 62.71 and 69.43
[1]; EML4-ALK, RMC-7977 1.235 nM
  pERK inhibition in MiaPaCa2 RTK fusion overexpression cells treated with RMC-7977: 29.82 and 34.96 and 36.22
[1]; EML4-ALK, RMC-7977 3.704 nM
  pERK inhibition in MiaPaCa2 RTK fusion overexpression cells treated with RMC-7977: 13.53 and 15.19 and 15.47
[1]; EML4-ALK, RMC-7977 11.111 nM
  pERK inhibition in MiaPaCa2 RTK fusion overexpression cells treated with RMC-7977: 5.91 and 5.92 and 5.79
[1]; EML4-ALK, RMC-7977 100.000 nM
  pERK inhibition in MiaPaCa2 RTK fusion overexpression cells treated with RMC-7977: 3.46 and 3.15 and 3.05
[1]; FGFR2, RMC-7977 0.0152 nM
  pERK in NCI-H358 RTK overexpression cells treated with RMC-7977: 105.65
  pERK inhibition in H358 RTK overexpression cells: 106.96
[1]; FGFR2, RMC-7977 0.0457 nM
  pERK in NCI-H358 RTK overexpression cells treated with RMC-7977: 88.22
  pERK inhibition in H358 RTK overexpression cells: 111.13
[1]; FGFR2, RMC-7977 0.41 nM
  pERK in NCI-H358 RTK overexpression cells treated with RMC-7977: 48.78
  pERK inhibition in H358 RTK overexpression cells: 65.30
[1]; FGFR2, RMC-7977 3.70 nM
  pERK inhibition in H358 RTK overexpression cells: 17.67
[1]; FGFR2, RMC-7977 11.11 nM
  pERK inhibition in H358 RTK overexpression cells: 6.99
[1]; FGFR2, RMC-7977 33.33 nM
  pERK in NCI-H358 RTK overexpression cells treated with RMC-7977: 3.56
  pERK inhibition in H358 RTK overexpression cells: 3.76
[1]; FGFR2, RMC-7977 100.00 nM
  pERK in NCI-H358 RTK overexpression cells treated with RMC-7977: 2.34
  pERK inhibition in H358 RTK overexpression cells: 2.57
[1]; FGFR2, RMC-7977 300.00 nM
  pERK in NCI-H358 RTK overexpression cells treated with RMC-7977: 1.90
  pERK inhibition in H358 RTK overexpression cells: 2.56
[1]; FGFR3-TACC3, RMC-7977 0.412 nM
  pERK inhibition in MiaPaCa2 RTK fusion overexpression cells treated with RMC-7977: 52.00 and 53.38 and 52.06 and 52.75
[1]; FGFR3-TACC3, RMC-7977 1.235 nM
  pERK inhibition in MiaPaCa2 RTK fusion overexpression cells treated with RMC-7977: 23.92 and 29.24 and 28.51 and 28.89
[1]; FGFR3-TACC3, RMC-7977 3.704 nM
  pERK inhibition in MiaPaCa2 RTK fusion overexpression cells treated with RMC-7977: 15.09 and 13.49 and 14.38 and 14.06
[1]; FGFR3-TACC3, RMC-7977 11.111 nM
  pERK inhibition in MiaPaCa2 RTK fusion overexpression cells treated with RMC-7977: 7.76 and 6.95 and 7.39 and 7.30
[1]; FGFR3-TACC3, RMC-7977 33.333 nM
  pERK inhibition in MiaPaCa2 RTK fusion overexpression cells treated with RMC-7977: 4.29 and 4.25 and 4.22
[1]; FGFR3-TACC3, RMC-7977 100.000 nM
  pERK inhibition in MiaPaCa2 RTK fusion overexpression cells treated with RMC-7977: 3.04 and 3.39 and 3.61 and 3.12
[1]; GFP, RMC-7977 0.0152 nM
  pERK in NCI-H358 RTK overexpression cells treated with RMC-7977: 115.00 and 107.70
  pERK inhibition in H358 RTK overexpression cells: 88.72 and 97.32
[1]; GFP, RMC-7977 0.0457 nM
  pERK in NCI-H358 RTK overexpression cells treated with RMC-7977: 126.84 and 117.32
  pERK inhibition in H358 RTK overexpression cells: 102.39 and 94.00
[1]; GFP, RMC-7977 0.41 nM
  pERK in NCI-H358 RTK overexpression cells treated with RMC-7977: 51.59 and 78.61
  pERK inhibition in H358 RTK overexpression cells: 66.43 and 65.41
[1]; GFP, RMC-7977 0.412 nM
  pERK inhibition in MiaPaCa2 RTK fusion overexpression cells treated with RMC-7977: 27.42 and 30.00 and 31.02 and 30.72
[1]; GFP, RMC-7977 1.235 nM
  pERK inhibition in MiaPaCa2 RTK fusion overexpression cells treated with RMC-7977: 9.02 and 12.77 and 12.06 and 11.06
[1]; GFP, RMC-7977 11.11 nM
  pERK in NCI-H358 RTK overexpression cells treated with RMC-7977: 4.80
  pERK inhibition in H358 RTK overexpression cells: 7.16 and 4.70
[1]; GFP, RMC-7977 11.111 nM
  pERK inhibition in MiaPaCa2 RTK fusion overexpression cells treated with RMC-7977: 3.33 and 3.53 and 3.95 and 3.59
[1]; GFP, RMC-7977 33.33 nM
  pERK in NCI-H358 RTK overexpression cells treated with RMC-7977: 2.56 and 2.82
  pERK inhibition in H358 RTK overexpression cells: 3.17 and 2.48
[1]; GFP, RMC-7977 33.333 nM
  pERK inhibition in MiaPaCa2 RTK fusion overexpression cells treated with RMC-7977: 3.43 and 3.24 and 2.97 and 2.93
[1]; GFP, RMC-7977 100.00 nM
  pERK in NCI-H358 RTK overexpression cells treated with RMC-7977: 2.07 and 1.93
  pERK inhibition in H358 RTK overexpression cells: 2.60 and 2.58
[1]; GFP, RMC-7977 100.000 nM
  pERK inhibition in MiaPaCa2 RTK fusion overexpression cells treated with RMC-7977: 3.01 and 2.87 and 2.65 and 2.84
[1]; GFP, RMC-7977 300.00 nM
  pERK in NCI-H358 RTK overexpression cells treated with RMC-7977: 2.17 and 2.42
  pERK inhibition in H358 RTK overexpression cells: 2.46 and 2.59
[1]; HER2, RMC-7977 0.0152 nM
  pERK in NCI-H358 RTK overexpression cells treated with RMC-7977: 111.00 and 102.34
  pERK inhibition in H358 RTK overexpression cells: 107.19 and 89.20
[1]; HER2, RMC-7977 0.0457 nM
  pERK in NCI-H358 RTK overexpression cells treated with RMC-7977: 106.57 and 84.47
  pERK inhibition in H358 RTK overexpression cells: 86.86 and 85.86
[1]; HER2, RMC-7977 0.41 nM
  pERK in NCI-H358 RTK overexpression cells treated with RMC-7977: 72.44 and 63.75
  pERK inhibition in H358 RTK overexpression cells: 63.34 and 59.01
[1]; HER2, RMC-7977 11.11 nM
  pERK in NCI-H358 RTK overexpression cells treated with RMC-7977: 2.66
  pERK inhibition in H358 RTK overexpression cells: 6.01 and 6.18
[1]; HER2, RMC-7977 33.33 nM
  pERK in NCI-H358 RTK overexpression cells treated with RMC-7977: 1.70 and 1.64
  pERK inhibition in H358 RTK overexpression cells: 5.40 and 5.32
[1]; HER2, RMC-7977 100.00 nM
  pERK in NCI-H358 RTK overexpression cells treated with RMC-7977: 1.42 and 1.69
[1]; HER2, RMC-7977 300.00 nM
  pERK in NCI-H358 RTK overexpression cells treated with RMC-7977: 2.02 and 1.78
[1]; RET M918T, RMC-7977 0.0152 nM
  pERK in NCI-H358 RTK overexpression cells treated with RMC-7977: 93.23 and 141.77
  pERK inhibition in H358 RTK overexpression cells: 96.21 and 105.26
[1]; RET M918T, RMC-7977 0.0457 nM
  pERK in NCI-H358 RTK overexpression cells treated with RMC-7977: 91.92 and 151.65
  pERK inhibition in H358 RTK overexpression cells: 91.15 and 96.00
[1]; RET M918T, RMC-7977 0.41 nM
  pERK in NCI-H358 RTK overexpression cells treated with RMC-7977: 60.67 and 71.79
  pERK inhibition in H358 RTK overexpression cells: 61.29 and 64.34
[1]; RET M918T, RMC-7977 3.70 nM
  pERK inhibition in H358 RTK overexpression cells: 20.58 and 17.35
[1]; RET M918T, RMC-7977 11.11 nM
  pERK in NCI-H358 RTK overexpression cells treated with RMC-7977: 4.81 and 4.27
  pERK inhibition in H358 RTK overexpression cells: 7.08 and 6.42
[1]; RET M918T, RMC-7977 33.33 nM
  pERK in NCI-H358 RTK overexpression cells treated with RMC-7977: 2.17 and 2.02
  pERK inhibition in H358 RTK overexpression cells: 3.13 and 3.07
[1]; RET M918T, RMC-7977 100.00 nM
  pERK in NCI-H358 RTK overexpression cells treated with RMC-7977: 1.44 and 1.22
  pERK inhibition in H358 RTK overexpression cells: 1.99 and 2.21
[1]; RET M918T, RMC-7977 300.00 nM
  pERK in NCI-H358 RTK overexpression cells treated with RMC-7977: 1.32
  pERK inhibition in H358 RTK overexpression cells: 2.03 and 1.88
KRAS^G12R
  Kd: 272 nM
KRAS^G12C
  Kd: 40.1 nM
